Assays:
[1] = test system: Glomerella lagenarium (Colletotrichum lagenarium); assay: Glomerella lagenarium (Colletotrichum lagenarium) liquid culture / cucumber / preventative (anthracnose); type: cell-based; conditions: Colletotrichum orbiculare; 20 ppm in the applied formulation; liquid culture in PDB, 24° C.; 3 to 4 days after application; read-out: disease control compared to untreated control (inhibition of growth measured photometrically)
Procedure: Mycelia fragments or conidia suspensions of a fungus prepared either freshly from liquid cultures of the fungus or from cryogenic storage, are directly mixed into nutrient broth. DMSO solutions of the test compound (max. 10 mg/ml) are diluted with 0.025% Tween20 by a factor of 50 and 10 μl of this solution is pipetted into a microtiter plate (96-well format). The nutrient broth containing the fungal spores/mycelia fragments is then added to give an end concentration of the tested compound. The test plates are incubated in the dark at 24° C. and 96% relative humidity. The inhibition of fungal growth is determined photometrically after 2 to 7 days, depending on the pathosystem, and percent antifungal activity relative to the untreated check is calculated.
Conidia of the fungus from cryogenic storage are directly mixed into nutrient broth (PDB—potato dextrose broth). After placing a (DMSO) solution of test compound into a microtiter plate (96-well format), the nutrient broth containing the fungal spores is added. The test plates are incubated at 24° C. and the inhibition of growth is measured photometrically 3 to 4 days after application.
The following compounds at 20 ppm in the applied formulation give at least 80% disease control in this test when compared to untreated control under the same conditions, which show extensive disease development.

Phakopsora pachyrhizi = Phakopsora pachyrhizi / soybean / leaf disc preventative (Asian soybean rust); type: in vivo; conditions: foliar, 200 ppm in the applied formulation, soybean leaf disks, inoculated one day after application, assessed 12 to 14 days after application, read-out: disease control compared to untreated control leaf disks
Procedure: (§1) Leaf disks or leaf segments of various plant species are cut from plants grown in a greenhouse. The cut leaf disks or segments are placed in multiwell plates (24-well format) onto water agar. The leaf disks are sprayed with a test solution before (preventative) or after (curative) inoculation. Compounds to be tested are prepared as DMSO solutions (max. 10 mg/ml) which are diluted to the appropriate concentration with 0.025% Tween20 just before spraying. The inoculated leaf disks or segments are incubated under defined conditions (temperature, relative humidity, light, etc.) according to the respective test system. A single evaluation of disease level is carried out 3 to 14 days after inoculation, depending on the pathosystem. Percent disease control relative to the untreated check leaf disks or segments is then calculated.
Soybean leaf disks are placed on water agar in multiwell plates (24-well format) and sprayed with the formulated test compound diluted in water. One day after application leaf discs are inoculated by spraying a spore suspension on the lower leaf surface. After an incubation period in a climate cabinet of 24-36 hours in darkness at 20° C. and 75% rh leaf disc are kept at 20° C. with 12 h light/day and 75% rh. The activity of a compound is assessed as percent disease control compared to untreated when an appropriate level of disease damage appears in untreated check leaf disks (12 to 14 days after application).
The following compounds at 200 ppm in the applied formulation give at least 80% disease control in this test when compared to untreated control leaf disks under the same conditions, which show extensive disease development.

[2] = test system: Puccinia recondita f. Sp. Tritici; assay: Puccinia recondita f. sp. tritici / wheat / leaf disc preventative (brown rust); type: in vivo; conditions: foliar, 200 ppm in the applied formulation, wheat leaf segments cv. Kanzler, inoculated 1 day after application, assessed 7 to 9 days after application, read-out: disease control compared to untreated control leaf disks
Procedure: as §1, with “calculated. Wheat leaf segments cv. Kanzler were placed on agar in multiwell plates (24-well format) and sprayed with the formulated test compound diluted in water. The leaf disks were inoculated with a spore suspension of the fungus 1 day after application. The inoculated leaf segments were incubated at 19° C. and 75% relative humidity (rh) under a light regime of 12 hours light/12 hours darkness in a climate cabinet and the activity of a compound was assessed as percent disease control compared to untreated when an appropriate level of disease damage appears in untreated check leaf segments (7 to 9 days after application). The following compounds at 200 ppm in the applied formulation give at least 80% disease control in this test when compared to untreated control leaf disks under the same conditions, which show extensive disease development.” for “calculated.”

| Structure (SMILES) | inhibition at 20 ppm [1] | melting point | pest or weed control at 200 ppm (Phakopsora pachyrhizi) | pest or weed control at 200 ppm [2] |
| --- | --- | --- | --- | --- |
| Fc1cc(-c2noc(C(F)(F)F)n2)ccc1CSc1ccccc1 [Compound 1.24, 3-[3-fluoro-4-(phenylsulfanylmethyl)phenyl]-5-(trifluoromethyl)-1,2,4-oxadiazole] | ≥ 80% | 50 to 55 °C | ≥ 80% |  |
| Fc1cc(CSc2ccccc2)ccc1-c1noc(C(F)(F)F)n1 [Compound 1.25, 3-[2-fluoro-4-(phenylsulfanylmethyl)phenyl]-5-(trifluoromethyl)-1,2,4-oxadiazole] | ≥ 80% | 48 to 54 °C | ≥ 80% |  |
| Cc1ccc(C)c([S+]([O-])c2ccc(-c3noc(C(F)(F)F)n3)cc2)c1 (stereo not shown) [Compound 2.7, 3-[4-(2,5-dimethylphenyl)sulfinyl-phenyl]-5-(trifluoromethyl)-1,2,4-oxadiazole] | ≥ 80% | 103 to 109 °C | ≥ 80% | ≥ 80% |
| [O-][S+](Cc1c(F)cccc1F)c1ccc(-c2noc(C(F)(F)F)n2)cc1 (stereo not shown) [Compound 2.9, 3-[4-[(2,6-difluorophenyl)methyl-sulfinyl]phenyl]-5-(trifluoromethyl)-1,2,4-oxadiazole] | ≥ 80% | 126 to 130 °C | ≥ 80% |  |
| Cc1cc(-c2noc(C(F)(F)F)n2)ccc1[S+]([O-])c1ccccc1 (stereo not shown) [Compound 2.11, 3-[4-(benzenesulfinyl)-3-methyl-phenyl]-5-(trifluoromethyl)-1,2,4-oxadiazole] | ≥ 80% |  | ≥ 80% | ≥ 80% |
| [O-][S+](c1ccc(-c2noc(C(F)(F)F)n2)cc1)c1ccc(C(F)(F)F)cc1 (stereo not shown) [Compound 2.14, 5-(trifluoromethyl)-3-[4-[4-(trifluoromethyl)phenyl]sulfinylphenyl]-1,2,4-oxadiazole] | ≥ 80% | 94 to 100 °C |  | ≥ 80% |
| [O-][S+](c1ccc(-c2noc(C(F)(F)F)n2)cc1)c1c(F)cccc1F (stereo not shown) [Compound 2.16, 3-[4-(2,6-difluorophenyl)sulfinyl-phenyl]-5-(trifluoromethyl)-1,2,4-oxadiazole] |  | 148 to 155 °C | ≥ 80% | ≥ 80% |
| [O-][S+](Cc1ccc(-c2noc(C(F)(F)F)n2)cc1)c1ccccc1F (stereo not shown) [Compound 2.17, 3-[4-[(2-fluorophenyl)sulfinylmethyl]phenyl]-5-(trifluoromethyl)-1,2,4-oxadiazole] | ≥ 80% | 108 to 118 °C | ≥ 80% |  |
| [O-][S+](c1ccc(-c2noc(C(F)(F)F)n2)cc1)c1ccccc1F (stereo not shown) [Compound 2.18, 3-[4-(2-fluorophenyl)sulfinylphenyl]-5-(trifluoromethyl)-1,2,4-oxadiazole] | ≥ 80% | 116 to 121 °C | ≥ 80% | ≥ 80% |
| [O-][S+](c1ccc(-c2noc(C(F)(F)F)n2)cc1)c1cccc(F)c1 (stereo not shown) [Compound 2.20, 3-[4-(3-fluorophenyl)sulfinylphenyl]-5-(trifluoromethyl)-1,2,4-oxadiazole] | ≥ 80% | 103 to 111 °C | ≥ 80% | ≥ 80% |
| Cc1ccccc1[S+]([O-])c1ccc(-c2noc(C(F)(F)F)n2)cn1 (stereo not shown) [Compound 2.25, 3-[6-(o-tolylsulfinyl)-3-pyridyl]-5-(trifluoromethyl)-1,2,4-oxadiazole] | ≥ 80% | 103 to 105 °C | ≥ 80% | ≥ 80% |
| [O-][S+](Cc1ccc(-c2noc(C(F)(F)F)n2)cc1F)c1ccccc1 (stereo not shown) [Compound 2.29, 3-[4-(benzenesulfinylmethyl)-3-fluoro-phenyl]-5-(trifluoromethyl)-1,2,4-oxadiazole] | ≥ 80% | 116 to 120 °C | ≥ 80% |  |
| [O-][S+](Cc1ccc(-c2noc(C(F)(F)F)n2)c(F)c1F)c1ccccc1 (stereo not shown) [Compound 2.31, 3-[4-(benzenesulfinylmethyl)-2,3-difluoro-phenyl]-5-(trifluoromethyl)-1,2,4-oxadiazole] | ≥ 80% | 163 to 167 °C | ≥ 80% | ≥ 80% |
| O=S(=O)(c1ccc(-c2noc(C(F)(F)F)n2)cc1)C1CCCCC1 [Compound 3.3, 3-(4-cyclohexylsulfonylphenyl)-5-(trifluoromethyl)-1,2,4-oxadiazole] | ≥ 80% | 110 to 116 °C | ≥ 80% |  |
| O=S(=O)(c1ccc(F)cc1)c1ccc(-c2noc(C(F)(F)F)n2)cc1 [Compound 3.9, 3-[4-(4-fluorophenyl)sulfonylphenyl]-5-(trifluoromethyl)-1,2,4-oxadiazole] |  | 144 to 149 °C | ≥ 80% | ≥ 80% |
| COc1ccccc1S(=O)(=O)c1ccc(-c2noc(C(F)(F)F)n2)cc1 [Compound 3.10, 3-[4-(2-methoxyphenyl)sulfonyl-phenyl]-5-(trifluoromethyl)-1,2,4-oxadiazole] |  | 119 to 123 °C |  | ≥ 80% |
| O=S(=O)(c1ccc(-c2noc(C(F)(F)F)n2)cc1)c1ccccc1F [Compound 3.12, 3-[4-(2-fluorophenyl)sulfonylphenyl]-5-(trifluoromethyl)-1,2,4-oxadiazole] | ≥ 80% | 140 to 147 °C | ≥ 80% |  |
| Cc1ccccc1S(=O)(=O)c1ccc(-c2noc(C(F)(F)F)n2)cc1 [Compound 3.17, 3-[4-(o-tolylsulfonyl)phenyl]-5-(trifluoromethyl)-1,2,4-oxadiazole] | ≥ 80% | 109 to 115 °C |  | ≥ 80% |
| Cc1ccccc1S(=O)(=O)c1ccc(-c2noc(C(F)(F)F)n2)cn1 [Compound 3.18, 3-[6-(o-tolylsulfonyl)-3-pyridyl]-5-(trifluoromethyl)-1,2,4-oxadiazole] | ≥ 80% | 66 to 68 °C |  | ≥ 80% |
| O=S(=O)(c1ccc(-c2noc(C(F)(F)F)n2)cn1)c1ccccc1F [Compound 3.19, 3-[6-(2-fluorophenyl)sulfonyl-3-pyridyl]-5-(trifluoromethyl)-1,2,4-oxadiazole] | ≥ 80% | 145 to 151 °C |  | ≥ 80% |
| O=S(=O)(Cc1ccc(-c2noc(C(F)(F)F)n2)cn1)c1ccccc1 [Compound 3.21, 3-[6-(benzenesulfonylmethyl)-3-pyridyl]-5-(trifluoromethyl)-1,2,4-oxadiazole] | ≥ 80% | 160 to 166 °C | ≥ 80% |  |
